Data as given in a melting point compilation (Tetko et al.; mined from patent text by program, amines drawn as free bases though some values may be those of a salt).

Row | melting point | Compound
1 | 140 °C | CC1CC(C)CN(S(=O)(=O)c2ccc(F)c(C(=O)O)c2)C1 (configuration not stated)
2 | 205 to 207 °C | Cc1ccc(-n2nc(C(C)(C)C)cc2NC(=O)Nc2ccc(OCCCc3ccncc3)c3ccccc23)cc1
3 | 140 to 148 °C | CCOC(=O)c1cn(-c2cc(N)c(F)cn2)c2c(Cl)c(F)c(F)cc2c1=O
4 | 243 °C | CC(C)(O)C#Cc1ccc2c(c1)NC(=O)CC(c1cccc(C#N)c1)=N2
5 | 50 to 52 °C | CC#CCOc1ccc(S(=O)(=O)N(C)c2c(C(=O)OCC)cnc3c2c(C)nn3C)cc1
6 | 84 to 85 °C | CN1CCC2(OCCO2)C2(CCCC2)C1=O
7 | 174 °C | Cc1nc2cc(Cn3ccnc3)ccc2n1Cc1cccnc1
8 | 192 °C | CCOC(=O)C1C(=O)Nc2ccccc2SC1c1ccc(OC)cc1 (configuration not stated)
9 | 75 °C | CC(=O)Oc1ccc(N2CCN(C(C)=O)CC2)c(Br)c1
10 | 143 °C | O=[N+]([O-])c1cc(F)ccc1OCCCCl
11 | 48 to 50 °C | CC1(C)C=C(CS(=O)(=O)c2ccccc2)C(C)(C)CC1
12 | 155 to 157 °C | O=C1C(=CO)CC[C@H]2C(=O)C(=CO)CC[C@H]12
13 | 208 °C | CC(C)(C)c1ccc(C(=O)N[C@H]2CC[C@H](CCN3CCC(c4cccc5c4CCO5)CC3)CC2)cc1
14 | 143 to 145 °C | CCCCc1c2c(nn1CCCC)c(N)nc1ccccc12
15 | 143 to 145 °C | NS(=O)(=O)NC(=O)CNC(=O)NCCCCC1CCSS1 (configuration not stated)
16 | 117 to 118 °C | Clc1cccc(Oc2ccc3[nH]ccc3c2)n1
17 | 81 to 89 °C | COc1ccc(Cn2c(=O)c3c(N4CCN(C)CC4)cc(Cl)cc3n(Cc3ccccc3)c2=O)cc1

Row | melting point | Compound
18 | 153 to 156 °C | Cc1noc(NC(=O)c2cnccc2C(F)(F)F)c1Cl
19 | 129 to 131 °C | OCCCc1cncn1Cc1noc2ccccc12
20 | 60 °C | CCOC(=O)CCc1nc(-c2ccccc2)cc2ccccc12
21 | 202 °C | CC(=O)NC(CC(=O)O)CN(C)C (configuration not stated)
22 | 254 to 255 °C | O=C(NCc1ccc(Cl)cc1)c1cnc2c(F)cc(Br)cc2c1
23 | 89.8 to 90.8 °C | CC(C)(C(=O)Nc1cccc(Cl)c1)N1COC(CBr)=C(c2ccccc2)C1=O
24 | 120 to 123 °C | CCc1nc2c(cnn2CC)c(NC2CCOCC2)c1CN(Cc1ccc(OC)c(-c2cccc(CN3CCN(C)CC3)c2)c1)C(=O)c1cccc(C(N)=O)c1
25 | 126 °C | O=C(c1ccccc1[N+](=O)[O-])C1CCN(C(=O)C(F)(F)F)CC1
26 | 183 °C | CC(C)(C)OC(=O)NCC1=C(CC(=O)O)CC=CC1
27 | 177 to 179 °C | CN(C)CCCc1c[nH]c(-c2ccc(F)cc2)c1-c1ccncc1
28 | 165 to 166 °C | COc1cc(C(C)C)c(NC(=O)CN2CCN(CCSc3nc4cccc([N+](=O)[O-])c4o3)CC2)c(C(C)C)c1
29 | 179 to 180 °C | Clc1cccc(-c2n[nH]cc2-c2ccnc(NCc3ccccc3)c2)c1
30 | 227 to 228 °C | C=CCNc1nc(NCC)nc2ccc([N+](=O)[O-])cc12
31 | > 250 °C | O=S(=O)(O)NCCC(F)(F)F
32 | 147 to 153 °C | COC(=O)c1ccccc1S(=O)(=O)NC(=O)Nc1n[nH]c(SC)n1
33 | 191 to 193 °C | CN(C)S(=O)(=O)c1cccc(Nc2ncc3cc4ccccc4n3n2)c1
34 | 122 to 124 °C | CCc1cc(-c2[nH]c3ccc(OC)cc3c2C)cc(CC)c1O

The next lines start with the molecule.

Row | Compound | melting point
35 | CN1C(=O)CC[C@]2(C)c3ccc(-c4ccc5ccccc5n4)cc3CC[C@@H]12 | 140 to 145 °C
36 | COc1ccc(-c2ccc(C(C)=O)cc2)cc1 | 156 °C
37 | O=[N+]([O-])c1cccc(C(O)CO)c1 (racemic) | 45 °C
38 | NC(=O)c1cc2ccc(F)cc2nc1N | 259 to 262 °C
39 | COc1ccc2c(c1)CCC(C=O)=C2C | 70 to 72 °C
40 | C=CC[C@H](C(N)=O)[C@@H](CC(C)C)C(=O)NC1N=C(c2cccc(OC)c2)c2ccccc2N(C)C1=O (some centres not stated) | 225 to 230 °C
41 | COC(=O)COc1c(F)cc(SCCNS(=O)(=O)c2ccc(Cl)cc2)cc1F | 79.5 to 80.5 °C
42 | Cc1cccc(NC(=O)NCC(=O)Nc2ccccc2C(=O)c2cccs2)c1 | 208 to 210 °C
43 | Cn1ncnc1COc1nn2c(-c3cnccn3)nnc2cc1-c1ccccc1 | 264 °C
44 | COC(=O)c1ccc(OC)c(NC(=N)c2ccc(F)c(Cl)c2)c1 | 120 °C
45 | COC1=CC(=O)CN(Cc2ccccc2)C1 | 113 to 115 °C
46 | CN(CC(=O)O)S(=O)(=O)c1csc2ccccc12 | 139 to 140 °C
47 | CCNC(=O)n1nc(Oc2c(Cl)cc(C(F)(F)F)cc2Cl)c(CC)c1C | 120 to 123 °C
48 | CC(C)(C)OC(=O)N1CCC[C@@H](OC(=O)c2ccc(C(=O)c3ccccc3)cc2)[C@H](NC(=O)c2ccc(OC(C)(C)C)cc2)C1 | 145 to 148 °C
49 | CCC(=O)N=c1sc2cccc(C)c2n1N | 175 to 176 °C
50 | Cc1ccc2c(c1)CCO2 | 45 to 48 °C
51 | CN1CCN(CCNc2ncnc3c2sc2nc(N4CCCC4)c4c(c23)CC(C)(C)OC4)CC1 | 97.5 to 98.8 °C
52 | N#Cc1c2n(c3ccccc13)CCNCC2 | 161 to 164 °C
53 | CCC(=O)C1(Nc2ccccc2)CCN(CCc2cccs2)CC1 | 127 °C
54 | O=[N+]([O-])c1nccn1CC(O)CN1C2CCCCCC21 (configuration not stated) | 91 to 91.5 °C
55 | CC(NO)c1ccc2c(c1)Sc1cc(Cl)ccc1O2 (configuration not stated) | 103 to 105 °C
56 | COC(=O)c1ccc2[nH]c(=O)oc(=O)c2c1 | 275 to 278 °C
57 | O=c1cccccc1N1CCN(CCO)CC1 | 85 to 86 °C

Row | Compound | melting point
58 | COC(=O)CCCC#Cc1cc(Cl)ccc1NS(=O)(=O)c1cccc2ccccc12 | 93 to 95 °C
59 | CC(C)(C)NC(=O)c1cc(Br)c(Br)s1 | 190 °C
60 | CCCCc1nc2cnc3ccccc3c2n1CCCCSc1ccc(F)cc1F | 122 to 126 °C
61 | COc1ccc(Oc2cc3ccc(Cl)cc3cn2)cc1 | 77 °C
62 | CC(C)C1COCc2nc3c(N)nc4ccccc4c3n21 (configuration not stated) | 249 to 250 °C
63 | CCCCc1cc(CCCc2c3c(nn2CCC)c(N)nc2ccccc23)no1 | 132 to 133 °C
64 | CC(=O)NC[C@H]1CN(c2ccc(N3CCC(O)(CNC4CC4)CC3)c(F)c2)C(=O)O1 | 160 to 162 °C
65 | CON=C(C(=O)NC1C(=O)N2C(C(=O)O)=C(CSc3nnnn3C)SCC12)c1csc(N)n1 (configuration not stated) | 180 °C
66 | CCOC(=O)Cc1nc(-c2ccc(F)cc2)oc1C(C)C | 59 to 60 °C
67 | O=C(Cc1c(-c2ccccc2)c2cc3c(cc2oc1=O)C(O)CC3)Nc1ccc(F)cc1C(F)(F)F (configuration not stated) | 217 to 218 °C
68 | CCCCCCc1cc2c(s1)-n1c(C)nnc1CN=C2c1ccc(C)cc1C | 99 to 101 °C
69 | CNC(=O)Oc1ccc(NC(=O)C(C)Cl)c(C)c1 (configuration not stated) | 167 to 170 °C
70 | CCOCc1c2ccccc2cc2ccccc12 | 74 to 75 °C
71 | Nc1c([N+](=O)[O-])c(C(F)(F)F)nn1-c1c(Cl)cc(C(F)(F)F)cc1Cl | 214 to 215 °C
72 | CCOC(=O)CCn1c(CC(=O)OCC)nc2c(N3CCCCC3)cccc21 | 82 to 85 °C
73 | CC(C)(C)OC(=O)[C@@H](CCc1ccc([N+](=O)[O-])cc1)OS(=O)(=O)c1ccc([N+](=O)[O-])cc1 | 97 to 98 °C
74 | O=C(O)Cc1c(C(=O)c2cccc(Cl)c2)[nH]c2cc(Cl)ccc12 | 199 to 201 °C
75 | COC[C@H]1CN(C2=Nc3ccccc3Nc3sc(C)cc32)CCN1 | 87 to 95 °C
76 | Cn1c(CCC(=O)O)ccc1C(=O)c1ccc(Cl)cc1 | 188 to 191 °C
77 | O=C1CN(c2ccc(F)cc2)CCN1 | 118 to 120 °C
78 | CC1=CC(O)C(OC(=O)C=Cc2ccc(N)cc2)C(C)(C)CC1=O (configuration not stated) | 49 to 50 °C
79 | COc1ccc2c(c1)c(-c1cc3c(OC)ccnc3[nH]1)cn2C | 288 to 289 °C
80 | CCON=C(C(C)=NOCc1ccccc1C(=NOC)C(=O)OC)c1ccc(Oc2ccc(Cl)cc2)cc1 | 90 to 93 °C

Row | Compound | melting point
81 | COc1ccc(-c2nc3cc(Cl)c(Cl)cc3n2C(=O)OCc2ccccc2)cc1N | 150 to 160 °C
82 | COc1cccc(C(=O)NC2(C(=O)N(C)OC)CC2)c1C | 173 to 175 °C
83 | Cc1cc(C)c([C@H](O)[C@@H](C#N)c2ccccc2)c(C)c1 (racemic) | 132 °C
84 | N#CC(Cc1ccccc1Cl)C(=O)O (configuration not stated) | 132 to 134 °C
85 | COc1cccc(S(=O)(=O)c2ccc3c(c2)c(CCN(C)C(=O)OC(C)(C)C)c(C)n3C)c1 | 123 to 127 °C
86 | CCNc1ccc(C(=O)Nc2ccc(OC)cc2)c(NC(=O)c2ccc(C(C)(C)C)cc2)c1 | 205 to 208 °C
87 | CCCC1=C(C#N)C(c2ccccc2Cl)c2c(n[nH]c2C(C)(C)C)N1 (configuration not stated) | > 270 °C
88 | O=C(c1ccc(Cl)c(Cl)c1)N1CCc2cc(S(=O)(=O)N3CCN(c4cccc(Cl)c4)CC3)ccc21 | 174 to 175 °C
89 | COc1ccc2c(c1)OCC(c1ccc(F)cc1)C2c1ccc(O)cc1 (configuration not stated) | 164 to 165 °C
90 | O=C(O)c1ccc(NC(=O)c2ccc(-c3ccccc3)cc2)cc1 | > 320 °C
91 | [N-]=[N+]=NCCCCCCC(N)=O | 62 °C
92 | CS(=O)(=O)Nc1cccc(NC(=O)C(=O)N2CCC(Cc3ccccc3)CC2)c1 | 128 to 130 °C
93 | Cc1nn(-c2ccc(F)cc2F)cc1C(=O)O | 245 to 247 °C
94 | Cc1[nH]c(=O)c(C#N)c2c1CC(c1cccnc1)CC2 (configuration not stated) | > 300 °C
95 | O=C1C(=Cn2ccnc2)CSc2ccc(Cl)cc21 | 139 to 141 °C
96 | COc1ccc2c(c1)c1c3c(c(-c4ccccc4Cl)cc1n2CCO)C(=O)NC3=O | 255 to 257 °C
97 | CCOCCNc1nc(C)c(CCO)c(=O)[nH]1 | 172 °C
98 | O=C(O)c1cc(-n2c(-c3ccccc3)cc3c2CCc2cc(Cl)ccc2-3)ccc1O | 249 to 251 °C
99 | O=C(O)Cn1c(-c2cccc(Br)c2)nc2cccnc21 | 247 to 249 °C
100 | Cc1ccc(-c2noc(-c3ccc4c(c3)C(C)(C)CCC4(C)C)n2)cc1 | 106 to 109 °C
101 | CCCn1cc(C(=O)O)c(=O)c2cnc(N3CCNCC3)nc21 | 259 to 261 °C
102 | COc1cc(Nc2c(C#N)cnc3cc(-c4cccc([N+](=O)[O-])c4)ccc23)c(Cl)cc1Cl | 287 to 288 °C
